From patent US8445461B2, “Pharmaceutical composition for meniere's disease” (Setsuko Takeda, priority 2007, dated 2013)
“And” between values parts separate entries of the source, which are not always exact repeats. Equal entries are not always repeated. Where two headings read alike, the source gives them in different places.

Columns and labels:
[1] = test system: guinea pigs of normal Prayer's reflex; conditions: cited from earlier work; for Plasma AVP: continuous subcutaneous administration
endolymphatic space = conditions: cited from earlier work; for Morphological change in the normal ear: glycerol 2.8 g/kg oral
[2] = test system: experimental endolymphatic hydrops; assay: Endolymphatic hydrops decompression effect: IR-L, IR-S and regression lines in the operated ear; type: in vivo, guinea pigs; conditions: active agent 2.8 g/kg oral, alone or with additive; for Regression line IR-S vs IR-L: Y-intercept / Regression line IR-S vs IR-L: slope: operated ears, 3 hours after; for IR-L (%) increase ratio of the length of Reissner's membrane / IR-S (%) increase ratio of the cross-sectional area of the scala media: operated side, perfusion 3 hours after
Procedure: The endolymphatic hydrops-decompression effect of saccharides or sugar alcohols was evaluated by assaying as below in triplicate. Firstly, guinea pigs received the surgical obliteration of the endolymphatic sac in the left ear to prepare “experimental model animals with endolymphatic hydrops”. The surgical obliteration of the endolymphatic sac was carried out by burning the extraskeletal portion in the endolymphatic sac with a bipolar electrocoagulator. An endolymphatic sac plays an important role in the absorption of endolymphatic fluid. The inhibition of absorption of endolymphatic fluid was caused by burning the endolymphatic sac to prepare an experimental endolymphatic hydrops. Those hydrops are progressively formed. The size of hydrops becomes constant 2 weeks to month after the surgery and maintained for several months. In detail, see Non-patent Reference 8 for the surgery.
After 1 month, they were divided into 3 groups: Group 2-1 (groups 1-6), 60 animals; Group 2-2 (groups 7-10), 40 animals; and Group 2-3 (groups 11-20), […]. The animals in Group 2-1 received saccharides or sugar alcohols alone (Reference Example 5). The animals in Group 2-2 orally received saccharides or sugar alcohols added polysaccharides. The animals in Group 2-3 received other combinations of saccharides or sugar alcohols added polysaccharides. Animals were sacrificed after the oral administration and the observation and the assessment the gastrointestinal condition, and observed the morphological change of the cochlea mainly in the operated side (left side), in particular of the endolymphatic hydrops decompression effect.
I were obtained left sides of the temporal bones immediately following fixation and kept them in 10% formalin solution for 10 days or more. They were decalcified with 5% trichloroacetic acid and dehydrated with alcohol in increasing concentration, then embedded in paraffin and celloidin. The prepared blocks were cut serially in the horizontal plane. The mid-modiolar sections were stained in hematoxylin and eosin and studied under a light microscope. For the quantitative assessment of changes of the endolymphatic space, the change ratios of the length of Reissner's membrane and the cross-sectional area of the scala media in each turn were measured from the mid-modiolar sections of the cochlea.
From these parameters, the increase ratios (%) of the length of Reissner's membrane (IR-L) and the cross-sectional area (%) of the scala media (IR-S) of a total of four turns were calculated according to the equation as described below:
The increase ratio of the length of Reissner's membrane (IR-L)=100×Σ(Lx−L*x)/ΣL*x (x: first, second, third and fourth turns)
The increase ratio of the cross-section area of the scala media (IR-S)=100×Σ(Sx−S*x)/ΣS*x (x: first, second, third and fourth turns)
Since almost no difference is shown in the regression lines of each group, it cannot be understood that there is the decompression effect of erythritol alone. When endolymphatic hydrops is formed, the cross-sectional area of scala media and the length of Reissner's membrane will increase. It can be assumed from FIG. 1 that there is statistically a primary correlation between both of them in the operated side in the control group. The regression lines are; IR-S (distilled water)=4.011+1.212*IR-L (distilled water); R2=0.987, IR-S (1 hour after)=5.409+1.1*IR-L (1 hour after); R2=0.903, IR-S (2 hours after)=1.125+0.992*IR-L (2 hours after); R2=0.98, IR-S (3 hours after)=2.407+1.309*IR-L (3 hours after); R2=0.974, IR-S (6 hours after)=7.36+1.147*IR-L (6 hours after); R2=0.895, IR-S (12 hours after)=8.089+1.152*IR-L (12 hours after); R2=0.918.
The difference of decompression effect on endolymphatic hydrops depending on dose of pectin added and time-course of the decompression effect can hardly determined by comparing and analyzing the average and standard deviation of IR-L and IR-S in the operated side in each groups. […]

guinea pigs = assay: Reference Example 7: erythritol or isosorbitol added jelly, conditions of feces and gastrointestinal tract; type: in vivo
Excerpt: As described hereinbefore, erythritol or isosorbitol as saccharides or sugar alcohols added jelly as a thickner were orally administered to 10 guinea pigs (280 to 350 g body weight) as shown in Table 41. The conditions of feces were observed.

[3] = test system: guinea pigs excreting normal feces; assay: Antidiarrheal effect: observation of feces after oral administration of saccharides or sugar alcohols with or without polysaccharides (Example 1); type: in vivo
Procedure: The criteria for analyzing the conditions of feces (hardness, shape and spaces of feces in the intestine) are as shown in Table 2:
The hardness and microscopic findings of feces from the group administered with distilled water were assessed as “Normal” scoring 3, the feces having normal shape and the shape could rather easily change by pushing with fingers were assessed as “Slightly soft” scoring 2, those of which the shape had already changed or it could quite easily change by pushed with fingers were assessed as “Soft” scoring 1, and those of which the shape is muddy or watery or of no shape were assessed “Muddy” scoring 0. To be precese, there are no watery feces because of the nature of diets and thus the muddy feces correspond to watery and muddy feces in human.
Since the muddy feces comprise large content of water, they induce the high abdominal pressure and the flatulence and distension. […] In the case of gas generation, it appears that noxious symptom such as the flatulence and distension are synergistically deteriorated. Therefore, we assessed not only based on the hardness of feces, but also the size, smoothness of the surface and amount of feces.
In these experiments, I observed is the diarrhea caused by saccharides or sugar alcohols and antidiarrhreal effect of saccharides. Guinea pigs orally received saccharides or sugar alcohols, for example tetrose such as erythritol, pentose such as xylitol or xylose, hexose such as isosorbitol or the like in combination with or without polysaccharides for observation of the feces up to 6 hours after the administration.
Guinea pigs (body weight 280 to 320 g, normal feces) were divided into four groups: for Group 1-a, xylitol alone (Reference Example 1), or xylitol and xanthan gum or pectin; for Group 1-b, xylose alone (Reference Example 2), xylose and xanthan gum or pectin; for Group 1-c, erythritol alone (Reference Example 3), erythritol and pectin, erythritol and xanthan gum, or erythritol, pectin and natural aluminum silicate gel or calcium carbonate; and for Group 1-d, isosorbitol alone (Reference Example 4), or isosorbitol and xanthan gum or pectin were orally administered, respectively. The compounds are dissolved in distilled water and 8 ml/kg of said solution were administered as a single dose.
The feces were observed during 6 hours after the administration. When the animals fell into the most serious condition, the hardness and shape of the feces from said animals were assessed as the effect by saccharides or sugar alcohols in the animals.

[4] = agent 2.8 g/kg oral + Jelly 0.1 g/kg, 5 animals
[5] = agent 2.8 g/kg oral + Jelly 0.25 g/kg, 5 animals
[6] = agent 2.8 g/kg oral, no additive dosage (agent alone)
[7] = active agent 1.4 g/kg oral, within 6 hours
[8] = active agent 2.1 g/kg oral, within 6 hours
[9] = active agent 2.8 g/kg oral, alone or with additive of the label
[10] = active agent 2.8 g/kg oral, alone or with additives of the label, most serious condition within 6 hours
[11] = active agent 3.5 g/kg oral, alone or with additive of the label, within 6 hours
[12] = active agent 5.6 g/kg oral, alone or with additive of the label, within 6 hours
[13] = saccharide or sugar alcohol 2.8 g/kg oral, alone or with additive, feces observed for 6 hours

## NC(=O)CC[C@@H]1NC(=O)[C@H](Cc2ccccc2)NC(=O)[C@H](Cc2ccc(O)cc2)NC(=O)[C@@H](N)CSSC[C@@H](C(=O)N2CCC[C@H]2C(=O)N[C@@H](CCCN=C(N)N)C(=O)NCC(N)=O)NC(=O)[C@H](CC(N)=O)NC1=O [AVP, arginine vasopressin]
[1]; AVP 0.2 mU/kg/min
  Plasma AVP: 2.2 ± 0.4 pg/mL
  Increase ratio (%) of the cross-sectional area of the scala media: 4.4 ± 0.7%
[1]; AVP 0.4 mU/kg/min
  Plasma AVP: 3.5 ± 1.8 pg/mL
  Increase ratio (%) of the cross-sectional area of the scala media: 10.4 ± 1.8%
[1]; AVP 1.0 mU/kg/min
  Plasma AVP: 14.0 ± 3.9 pg/mL
  Increase ratio (%) of the cross-sectional area of the scala media: 17.4 ± 7.9%
[1]; AVP 1 mU/kg/minute, continuous, mini-pump subcutaneously
  Formation of endolymphatic hydrops: apparently produced endolymphatic hydrops

## OCC(O)CO [Gly alone, glycerol]
Endolymphatic space; 2 hours after
  Morphological change in the normal ear: collapse
Endolymphatic space; 6 hours after
  Morphological change in the normal ear: mild hydrops
Endolymphatic space
  Time until exertion of effect after the oral administration: about 2 hours
[2]
  Regression line IR-S vs IR-L: Y-intercept: −2.455
  Regression line IR-S vs IR-L: slope: 0.887
  IR-L (%) increase ratio of the length of Reissner's membrane: 37.4 ± 31.2%
  IR-S (%) increase ratio of the cross-sectional area of the scala media: 31.0 ± 27.5%

## O[C@@H]1CO[C@H]2[C@@H]1OC[C@@H]2O [Isosorbitol]
Guinea pigs; [4]
  Hardness of feces: Muddy (number of animals): 1
  Hardness of feces: Normal (number of animals): 2
  Hardness of feces: Slightly soft (number of animals): 0
  Hardness of feces: Soft (number of animals): 2
Guinea pigs; [5]
  Hardness of feces: Muddy (number of animals): 0
  Hardness of feces: Normal (number of animals): 2
  Hardness of feces: Slightly soft (number of animals): 0
  Hardness of feces: Soft (number of animals): 3
Guinea pigs; [6]
  Hardness of feces: Muddy (number of animals): 1
  Hardness of feces: Normal (number of animals): 2
  Hardness of feces: Slightly soft (number of animals): 2
  Hardness of feces: Soft (number of animals): 3
Endolymphatic space
  Time until exertion of effect after the oral administration: ~6 h
[3]; [7]
  Hardness of feces: Muddy (number of animals): 0
  Hardness of feces: Normal (number of animals): 3
  Hardness of feces: Slightly soft (number of animals): 1
  Hardness of feces: Soft (number of animals): 0
[3]; [8]
  Hardness of feces: Muddy (number of animals): 0
  Hardness of feces: Normal (number of animals): 0
  Hardness of feces: Slightly soft (number of animals): 2
  Hardness of feces: Soft (number of animals): 2
[3]; [9]
  Time after administration of the peak (most serious) diarrhea: Three to four hours after
  Time after administration when diarrhea / softening of feces started: 2 h
  Time after administration when feces recovered to (almost) normal: 6 h
[3]; [10]
  Hardness of feces: Muddy (number of animals): 1
  Hardness of feces: Normal (number of animals): 2
  Hardness of feces: Slightly soft (number of animals): 2
  Hardness of feces: Soft (number of animals): 2
[3]; [11]
  Hardness of feces: Muddy (number of animals): 3
  Hardness of feces: Normal (number of animals): 0
  Hardness of feces: Slightly soft (number of animals): 0
  Hardness of feces: Soft (number of animals): 1
[3]; [12]
  Hardness of feces: Muddy (number of animals): 3
  Hardness of feces: Normal (number of animals): 0
  Hardness of feces: Slightly soft (number of animals): 0
  Hardness of feces: Soft (number of animals): 0
[2]; listed as IB alone
  Regression line IR-S vs IR-L: Y-intercept: 7.143 and 6.542
  Regression line IR-S vs IR-L: slope: 1.003 and 1.011
[2]
  IR-L (%) increase ratio of the length of Reissner's membrane: 31.3 ± 36.5%
  IR-S (%) increase ratio of the cross-sectional area of the scala media: 40.9 ± 38.2%

## OC[C@@H](O)[C@@H](O)[C@H](O)[C@@H](O)CO [Sorbitol, sorbitol]
[3]; [13]
  Hardness of feces 0 (Muddy): number of animals: 2 and 3
  Hardness of feces 1 (Soft): number of animals: 2
  Hardness of feces 3 (Normal): number of animals: 0

## OC[C@@H](O)[C@H](O)[C@@H](O)CO [Xylitol, xylitol]
[3]; [7]
  Hardness of feces: Muddy (number of animals): 0
  Hardness of feces: Normal (number of animals): 5
  Hardness of feces: Slightly soft (number of animals): 0
  Hardness of feces: Soft (number of animals): 0
[3]; [8]
  Hardness of feces: Muddy (number of animals): 0
  Hardness of feces: Normal (number of animals): 4
  Hardness of feces: Slightly soft (number of animals): 1
  Hardness of feces: Soft (number of animals): 0
[3]; [9]
  Time after administration of the peak (most serious) diarrhea: Three to four hours after the administration
  Time after administration when diarrhea / softening of feces started: 2 h
  Time after administration when feces recovered to (almost) normal: 6 h
[3]; [10]
  Hardness of feces: Muddy (number of animals): 3
  Hardness of feces: Normal (number of animals): 0
  Hardness of feces: Slightly soft (number of animals): 1
  Hardness of feces: Soft (number of animals): 1
[2]
  Regression line IR-S vs IR-L: Y-intercept: 2.371
  Regression line IR-S vs IR-L: slope: 1.208
  IR-L (%) increase ratio of the length of Reissner's membrane: 48.6 ± 40.3%
  IR-S (%) increase ratio of the cross-sectional area of the scala media: 60.1 ± 48.9%

## O=C[C@H](O)[C@@H](O)[C@H](O)CO [Xylose, xylose]
[3]; [9]
  Abdominal distension / gas by inspections and palpations: mild or moderate flatulence and distension
[3]; [10]
  Hardness of feces: Muddy (number of animals): 1
  Hardness of feces: Normal (number of animals): 0
  Hardness of feces: Slightly soft (number of animals): 1
  Hardness of feces: Soft (number of animals): 3
[2]
  Regression line IR-S vs IR-L: Y-intercept: 1.197
  Regression line IR-S vs IR-L: slope: 1.364
  IR-L (%) increase ratio of the length of Reissner's membrane: 29.7 ± 21.3%
  IR-S (%) increase ratio of the cross-sectional area of the scala media: 41.7 ± 30.1%

## OC[C@@H](O)[C@@H](O)[C@H](O)[C@H](O)CO [mannitol]
[3]; [13]
  Hardness of feces 0 (Muddy): number of animals: 1
  Hardness of feces 1 (Soft): number of animals: 2
  Hardness of feces 2 (Slightly soft): number of animals: 1
  Hardness of feces 3 (Normal): number of animals: 0
